Several values for one entry are separate records, joined by “and”; a condition that tells them apart may be missing. Equal values may be shown once.
Experiment: Plasma and tissue distribution of Cryptophycin Payload and Cryptophycin Metabolite 1 after Cryptophycin Payload alone or with CTX in PC-3 xenograft nude mice (LC-MS/MS)
Format: in vivo, mouse
Procedure: For the present experiment, materials, methods, drugs and model were as described in Example 21. […] Following intravenous administration, whole blood samples were collected at predetermined time points via cardiac puncture (n=3 mice per time point). Blood samples were centrifuged to obtain plasma and subsequently stored at […] or lower pending analysis. Additionally, at each time point, kidney, liver, small intestine, brain, heart, and tumor were harvested by removing entire specimen from surrounding tissues (only a portion of liver and small intestine were removed). After removal, tissues were rinsed with normal saline solution (contents of small intestine were emptied) and blotted dry with clean adsorptive tissue. Once dried, the specimens were weighed and stored at −20° C. or lower pending analysis. […] Pharmacokinetic (PK) parameters were calculated. Mean plasma and tissue concentrations were used to calculate mean PK parameters. Skin and skeletal muscle which were not assessed due to difficulty of homogenization.
Vehicle for single dose group was 10% ethanol, 5% Tween 80, 85% saline. Vehicle for combination treatment was 5% ethanol, 2.5% Tween 80, 92.5% saline.

[1] = Payload 0.4 mg/kg + CTX 16 mg/kg IV, 24 h
[2] = Payload 0.4 mg/kg IV alone, 0.083 h
[3] = Payload 0.4 mg/kg IV alone, 0.5 h
[4] = Payload 0.4 mg/kg IV alone, 1 h
[5] = Payload 0.4 mg/kg IV alone, 2 h
[6] = Payload 0.4 mg/kg IV alone, 6 h
[7] = Payload 0.4 mg/kg IV alone, 24 h
[8] = Plasma, Payload 0.4 mg/kg + CTX 16 mg/kg IV
[9] = Plasma, Payload 0.4 mg/kg IV alone
[10] = Small Intestine, Payload 0.4 mg/kg + CTX 16 mg/kg IV
[11] = Small Intestine, Payload 0.4 mg/kg IV alone
[12] = Tumor, Payload 0.4 mg/kg + CTX 16 mg/kg IV
[13] = Tumor, Payload 0.4 mg/kg IV alone

CCCCNC(=O)Cc1ccccc1SSC(C)(C)CCN1CCN(Cc2ccc(C3OC3C(C)C3CC=CC(=O)NC(Cc4ccc(OC)c(Cl)c4)C(=O)NCC(C)(C)C(=O)NC(CC(C)C)C(=O)O3)cc2)CC1 (stereo not shown) [Cryptophycin Payload]
Concentration of Cryptophycin Payload, Kidney, Mean [1]: 3.39 ng/g
Concentration of Cryptophycin Payload, Liver, Mean [1]: BLQ
Concentration of Cryptophycin Payload, Plasma, Mean [1]: BLQ
Concentration of Cryptophycin Payload, Small Intestine, Mean [1]: BLQ
Concentration of Cryptophycin Payload, Tumor, Mean [1]: BLQ
Concentration of Cryptophycin Payload, Brain, Mean [2]: 8.32 ng/g
Concentration of Cryptophycin Payload, Heart, Mean [2]: 63.2 ng/g
Concentration of Cryptophycin Payload, Kidney, Mean [2]: 533 ng/g
Concentration of Cryptophycin Payload, Liver, Mean [2]: 6.02 ng/g
Concentration of Cryptophycin Payload, Plasma, Mean [2]: 493 ng/mL
Concentration of Cryptophycin Payload, Small Intestine, Mean [2]: 53.3 ng/g
Concentration of Cryptophycin Payload, Tumor, Mean [2]: 11.6 ng/g
Concentration of Cryptophycin Payload, Brain, Mean [3]: 1.42 ng/g
Concentration of Cryptophycin Payload, Heart, Mean [3]: 18.9 ng/g
Concentration of Cryptophycin Payload, Kidney, Mean [3]: 320 ng/g
Concentration of Cryptophycin Payload, Liver, Mean [3]: 1.92 ng/g
Concentration of Cryptophycin Payload, Plasma, Mean [3]: 36.3 ng/mL
Concentration of Cryptophycin Payload, Small Intestine, Mean [3]: 13.6 ng/g
Concentration of Cryptophycin Payload, Tumor, Mean [3]: 4.11 ng/g
Concentration of Cryptophycin Payload, Brain, Mean [4]: 0.673 ng/g
Concentration of Cryptophycin Payload, Heart, Mean [4]: 7.91 ng/g
Concentration of Cryptophycin Payload, Kidney, Mean [4]: 158 ng/g
Concentration of Cryptophycin Payload, Liver, Mean [4]: 3.32 ng/g
Concentration of Cryptophycin Payload, Plasma, Mean [4]: 11.0 ng/mL
Concentration of Cryptophycin Payload, Small Intestine, Mean [4]: 6.55 ng/g
Concentration of Cryptophycin Payload, Tumor, Mean [4]: 2.14 ng/g
Concentration of Cryptophycin Payload, Brain, Mean [5]: 0.436 ng/g
Concentration of Cryptophycin Payload, Heart, Mean [5]: 3.28 ng/g
Concentration of Cryptophycin Payload, Kidney, Mean [5]: 93.8 ng/g
Concentration of Cryptophycin Payload, Liver, Mean [5]: 1.29 ng/g
Concentration of Cryptophycin Payload, Plasma, Mean [5]: 5.30 ng/mL
Concentration of Cryptophycin Payload, Small Intestine, Mean [5]: 6.41 ng/g
Concentration of Cryptophycin Payload, Tumor, Mean [5]: 2.41 ng/g
Concentration of Cryptophycin Payload, Brain, Mean [6]: BLQ
Concentration of Cryptophycin Payload, Heart, Mean [6]: 0.885 ng/g
Concentration of Cryptophycin Payload, Kidney, Mean [6]: 20.4 ng/g
Concentration of Cryptophycin Payload, Liver, Mean [6]: 0.948 ng/g
Concentration of Cryptophycin Payload, Plasma, Mean [6]: 0.492 ng/mL
Concentration of Cryptophycin Payload, Small Intestine, Mean [6]: 2.17 ng/g
Concentration of Cryptophycin Payload, Tumor, Mean [6]: 1.03 ng/g
Concentration of Cryptophycin Payload, Brain, Mean [7]: BLQ
Concentration of Cryptophycin Payload, Heart, Mean [7]: BLQ
Concentration of Cryptophycin Payload, Kidney, Mean [7]: 3.79 ng/g
Concentration of Cryptophycin Payload, Liver, Mean [7]: BLQ
Concentration of Cryptophycin Payload, Plasma, Mean [7]: BLQ
Concentration of Cryptophycin Payload, Small Intestine, Mean [7]: 2.31 ng/g
Concentration of Cryptophycin Payload, Tumor, Mean [7]: 0.335 ng/g
AUC(0-inf) of Cryptophycin Payload [8]: 129 ng·h/mL
AUC(0-t) of Cryptophycin Payload [8]: 128 ng·h/mL
CL of Cryptophycin Payload [8]: 51.8 mL/min/kg
Vss of Cryptophycin Payload [8]: 2.28 L/kg
t1/2 of Cryptophycin Payload [8]: 50.9 min
AUC(0-inf) of Cryptophycin Payload [9]: 154 ng·h/mL
AUC(0-t) of Cryptophycin Payload [9]: 153 ng·h/mL
CL of Cryptophycin Payload [9]: 43.3 mL/min/kg
Vss of Cryptophycin Payload [9]: 1.15 L/kg
t1/2 of Cryptophycin Payload [9]: 67.8 min
AUC(0-inf) of Cryptophycin Payload [10]: 36.4 ng·h/g
AUC(0-t) of Cryptophycin Payload [10]: 34.9 ng·h/g
t1/2 of Cryptophycin Payload [10]: 76.2 min
tmax of Cryptophycin Payload [10]: 4.8 min
TPI of Cryptophycin Payload (Small Intestine, Payload 0.4 mg/kg + CTX 16 mg/kg IV, AUC0-inf tissue/AUC0-inf plasma): 0.282 mL/g
AUC(0-t) of Cryptophycin Payload [11]: 81.6 ng·h/g
tmax of Cryptophycin Payload [11]: 4.98 min and 4.8 min
TPI of Cryptophycin Payload (Small Intestine, Payload 0.4 mg/kg IV alone, AUC0-6 h tissue/AUC0-6 h plasma): 0.268 mL/g and 0.268^c mL/g
AUC(0-t) of Cryptophycin Payload [12]: 42.7 ng·h/g
tmax of Cryptophycin Payload [12]: 4.8 min
TPI of Cryptophycin Payload (Tumor, Payload 0.4 mg/kg + CTX 16 mg/kg IV, AUC0-6 h tissue/AUC0-6 h plasma): 0.334 mL/g and 0.334^c mL/g
AUC(0-inf) of Cryptophycin Payload [13]: 28.8 ng·h/g
AUC(0-t) of Cryptophycin Payload [13]: 24.9 ng·h/g
t1/2 of Cryptophycin Payload [13]: 506 min
tmax of Cryptophycin Payload [13]: 4.98 min and 4.8 min
TPI of Cryptophycin Payload (Tumor, Payload 0.4 mg/kg IV alone, AUC0-inf tissue/AUC0-inf plasma): 0.187 mL/g

— patent US11826399B2, “Chlorotoxin agents and uses thereof” (Eisai Inc., priority 2017, dated 2023)
